Consider 1 compound from paper PMC8621208, “Antiseptic 9-Meric Peptide with Potency against Carbapenem-Resistant Acinetobacter baumannii Infection” (International Journal of Molecular Sciences, 2021).

Assay [1] relates to CRAB C0 spheroplasts. In words: Cytoplasmic membrane depolarization of CRAB C0 spheroplasts (diSC3-5). Format: cell-based, carbapenem-resistant A. baumannii. The conditions noted are these: 4 μM. As for the experimental part:
(§1) The depolarization capacity by peptides were measured by using a membrane potential sensitive dye 3,3′-dipropylthiadicarbocyanine iodide (diSC3-5) as previously described using intact CRAB C0. Briefly, CRAB C0 cells were washed using wash buffer (5 mM HEPES, 20 mM glucose, pH 7.4). The cells were resuspended in dilution buffer (5 mM HEPES, 20 mM glucose, 0.1 M KCl, pH 7.4) and then incubated with diSC3-5 dye (1 h). In parallel, spheroplasts of CRAB C0 cells (contains plasma membrane and peptidoglycans) were prepared by damaging outer membrane using osmotic shock, as described previously. Finally, varying concentrations of peptide treated cells, negative control (cells with dye) and positive control (1% triton X-100) were recorded for change in fluorescence using fluorescent spectrophotometer and expressed as percent depolarization.

Assay [2] has as its system CRAB C10. As to the kind of experiment: MIC, broth dilution. Format: cell-based, carbapenem-resistant A. baumannii. The conditions noted are these: read-out: Minimal Inhibitory Concentration (MIC). The text has this:
(§2) Escherichia coli KCTC 1682 was obtained from the Korean Collection for Type Cultures (KCTC) (Jeongeup-si, Korea), Acinetobacter baumannii KCCM 40203, Pseudomonas aeruginosa KCCM 11328 from the Korea Culture Center of Microorganisms (KCCM) (Seoul, Korea). Klebsiella pneumoniae NCCP 16054 were obtained from the National Culture Collection for Pathogens (NCCP) (Osong, Korea). Additionally, two carbapenem-resistant E. coli (CREC E1 and E2), 11 carbapenem-resistant A. baumannii (CRAB C0–C10) and two carbapenem-resistant K. pneumoniae (CRKP K1 and K2) were isolated from the patients, who presented symptoms and signs of infection at Korea University Anam Hospital (Seoul, Korea) (IRB registration no. 2020AN0157, 4 March 2021). CRAB C0–C10 have the OXA-23 gene with carbapenem-resistance.
(§3) The minimum inhibitory concentrations (MIC) were determined using broth dilution method. Briefly, all the mentioned bacterial strains were grown overnight at 37 °C by Muller–Hinton (MH) media. […] After 16 h incubation, the bacterial growth was read at 600 nm using a SpectraMAX microplate reader (Molecular Devices, San Jose, CA, USA).
On the technique in general: Broth dilution looks for growth in wells or tubes with falling amounts of substance.

For assay [3], the system named is CRAB C3. In words: MIC, broth dilution. The format is cell-based, carbapenem-resistant A. baumannii. The conditions noted are these: read-out: Minimal Inhibitory Concentration (MIC).
From the text: as §2, §3

Assay [4] concerns CRAB C5. In words: MIC, broth dilution. The format is cell-based, carbapenem-resistant A. baumannii. Conditions: read-out: Minimal Inhibitory Concentration (MIC).
From the text: as §2, §3

Assay [5] concerns CRAB C2. In words: MIC, broth dilution. The format is cell-based, carbapenem-resistant A. baumannii. The conditions noted are these: read-out: Minimal Inhibitory Concentration (MIC).
From the text: as §2, §3

Assay [6] concerns CRAB C4. In words: MIC, broth dilution. Format: cell-based, carbapenem-resistant A. baumannii. Conditions: read-out: Minimal Inhibitory Concentration (MIC).
From the text: as §2, §3

Assay [7] has as its system CRAB C9. As to the kind of experiment: MIC, broth dilution. The format is cell-based, carbapenem-resistant A. baumannii. Conditions: read-out: Minimal Inhibitory Concentration (MIC).
From the text: as §2, §3

Assay [8] deals with CRAB C0. As to the kind of experiment: MIC, broth dilution. The format is cell-based, carbapenem-resistant A. baumannii. Conditions: read-out: Minimal Inhibitory Concentration (MIC).
From the text: as §2, §3

Assay [9] deals with CRAB C6. As to the kind of experiment: MIC, broth dilution. The conditions noted are these: read-out: Minimal Inhibitory Concentration (MIC). The format is cell-based, carbapenem-resistant A. baumannii.
From the text: as §2, §3

The subject of assay [10] is CRAB C7. In words: MIC, broth dilution. The format is cell-based, carbapenem-resistant A. baumannii. Conditions: read-out: Minimal Inhibitory Concentration (MIC).
From the text: as §2, §3

The test system of assay [11] is A. baumannii. As to the kind of experiment: MIC, broth dilution. Format: cell-based, Acinetobacter baumannii KCCM 40203. The conditions noted are these: 16 h, MH media, read-out: Minimal Inhibitory Concentration (MIC).
From the text: as §2, §3

In assay [12] the test system is CRKP K1. In words: MIC, broth dilution. The format is cell-based, carbapenem-resistant K. pneumoniae. Conditions: read-out: Minimal Inhibitory Concentration (MIC).
From the text: as §2, §3

In assay [13] the test system is CRKP K2. As to the kind of experiment: MIC, broth dilution. Format: cell-based, carbapenem-resistant K. pneumoniae. Conditions: read-out: Minimal Inhibitory Concentration (MIC).
From the text: as §2, §3

Assay [14] relates to intact CRAB C0. In words: Depolarization of intact CRAB C0 (diSC3-5). Format: cell-based, carbapenem-resistant A. baumannii. Conditions: 4 μM. As for the experimental part:
as §1

The subject of assay [15] is CREC E1. In words: MIC, broth dilution. Format: cell-based, carbapenem-resistant E. coli. The conditions noted are these: read-out: Minimal Inhibitory Concentration (MIC).
From the text: as §2, §3

The test system of assay [16] is CREC E2. As to the kind of experiment: MIC, broth dilution. The conditions noted are these: read-out: Minimal Inhibitory Concentration (MIC). Format: cell-based, carbapenem-resistant E. coli.
From the text: as §2, §3

The test system of assay [17] is K. pneumoniae. As to the kind of experiment: microbe, parasite or virus in culture. Conditions: K. pneumoniae; 16 h, MH media.
From the text: as §2, §3

The test system of assay [18] is CRAB C8. As to the kind of experiment: microbe, parasite or virus in culture. The conditions noted are these: CRAB C8.
From the text: as §2, §3

For assay [19], the system named is CRAB C1. In words: microbe, parasite or virus in culture. Conditions: CRAB C1.
From the text: as §2, §3

≈ marks a conversion by molar mass, not a printed value.

With `CC[C@H](C)[C@H](NC(=O)CN)C(=O)NCC(=O)N[C@@H](C)C(=O)N[C@H](C(=O)N[C@@H](CC(C)C)C(=O)N[C@@H](CCCCN)C(=O)N[C@H](C(=O)N[C@@H](CC(C)C)C(=O)N[C@H](C(=O)N[C@H](C(=O)NCC(=O)N[C@@H](CC(C)C)C(=O)N1CCC[C@H]1C(=O)N[C@@H](C)C(=O)N[C@@H](CC(C)C)C(=O)N[C@H](C(=O)N[C@@H](CO)C(=O)N[C@@H](Cc1c[nH]c2ccccc12)C(=O)N[C@H](C(=O)N[C@@H](CCCCN)C(=O)N[C@@H](CCCNC(=N)N)C(=O)N[C@@H](CCCCN)C(=O)N[C@@H](CCCNC(=N)N)C(=O)N[C@@H](CCC(N)=O)C(=O)N[C@@H](CCC(N)=O)C(N)=O)[C@@H](C)CC)[C@@H](C)CC)[C@@H](C)O)[C@@H](C)O)C(C)C)C(C)C` [Melittin, reference compound], the “Increase of diSC3-5 fluorescence in CRAB spheroplasts (depolarization)” value in assay [1] was 67.9%. Also, the MIC in assay [2], in assay [3], in assay [4], in assay [5], in [6] and in assay [7] was 4 µM (≈ 11.4 µg/mL) in each case. Further, the MIC is recorded as 4 µM (≈ 11.4 µg/mL) in assay [8]; 4 µM (≈ 11.4 µg/mL) in assay [9]; 4 µM (≈ 11.4 µg/mL) in assay [10]; 4 µM (≈ 11.4 µg/mL) in assay [11]; 64 µM (≈ 182 µg/mL) in assay [12]; 64 µM (≈ 182 µg/mL) in [13]. Also, the MIC in [15] and in [16] was 8 µM (≈ 22.8 µg/mL) in each case. In addition, the “Depolarization of intact CRAB (diSC3-5)” value in assay [14] is 75.6%. Besides, the figures for the “Minimal Inhibitory Concentration (MIC)” value in assay [17], in [18] and in assay [19] were 32 µM, 4 µM and 4 µM, respectively.
